Key:
[1] = test system: late watergrass; assay: Test Example 1: herbicidal activity, application before weed generation under submerged conditions (Table 16, symbol A); assay type: in vivo, late watergrass (Echinochloa oryzicola); conditions: 320 g/ha applied herbicide
Procedure, shortened: (§1)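 Alluvial soil was flooded to 4 cm depth, weed seeds were sown mixed and 2.5-leaf rice seedlings were transplanted. On sowing day, the compound's emulsion, diluted in water to a set dose, was applied to the water surface. Plants grew at 25–30 °C and were scored 0–5 after three weeks.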

[2] = test system: Japanese bulrush; assay: Test Example 1: herbicidal activity, application before weed generation under submerged conditions (Table 16, symbol B); assay type: in vivo, Japanese bulrush (Schoenoplectus juncoides); conditions: 320 g/ha applied herbicide
Procedure, shortened: as §1

[3] = test system: oval-leafed pondweed; assay: Test Example 1: herbicidal activity, application before weed generation under submerged conditions (Table 16, symbol C); assay type: in vivo, oval-leafed pondweed (Monochoria vaginalis); conditions: 320 g/ha applied herbicide
Procedure, shortened: as §1

[4] = test system: barnyard grass; assay: Test Example 3: herbicidal effect by foliage application, Wagner pot (Table 18, symbol H); assay type: in vivo, barnyard grass (Echinochloa crus-galli); conditions: for herbicidal effect on H (barnyard grass), rating 0-5: 320 g/ha; for herbicidal effect on H: barnyard grass: amount of applied herbicide 320 g/ha
Procedure, shortened: (§2)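 Plants were sown in alluvial soil held under 0.1–0.5 cm standing water and grown 14 days in a greenhouse at 25–30 °C. An emulsifiable formulation, water-diluted to the set dose, was then sprayed onto the foliage, and effects were scored three weeks later using previously defined criteria.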

[5] = test system: Chinese sprangletop; assay: Test Example 3: herbicidal effect by foliage application, Wagner pot (Table 18, symbol D); assay type: in vivo, chinese sprangletop (Leptochloa chinensis); conditions: for herbicidal effect on D (Chinese sprangletop), rating 0-5: 320 g/ha; for herbicidal effect on D: Chinese sprangletop: amount of applied herbicide 320 g/ha
Procedure, shortened: as §2

[6] = test system: rice flat sedge; assay: Test Example 3: herbicidal effect by foliage application, Wagner pot (Table 18, symbol E); assay type: in vivo, rice flat sedge (Cyperus iria); conditions: for herbicidal effect on E (rice flat sedge), rating 0-5: 320 g/ha; for herbicidal effect on E: rice flat sedge: amount of applied herbicide 320 g/ha
Procedure, shortened: as §2

[7] = test system: Italian ryegrass; assay: Test Example 4: herbicidal effect by soil treatment (Table 19, symbol K); assay type: in vivo, Italian ryegrass (Lolium multiflorum)
Procedure, shortened: (§3)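 Soil-surface application: an emulsion agent diluted with water to the predetermined dose is sprayed uniformly over seeds lying under roughly 1.5 cm of sterilized diluvial soil. Boxes stay in a greenhouse at 25° C. to 30° C. Three weeks later, each species is graded on previously defined criteria.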

[8] = test system: windgrass; assay: Test Example 4: herbicidal effect by soil treatment (Table 19, symbol L); assay type: in vivo, windgrass (Apera spica-venti)
Procedure, shortened: as §3

[9] = test system: lambsquarters; assay: Test Example 4: herbicidal effect by soil treatment (Table 19, symbol O); assay type: in vivo, lambsquarters (Chenopodium album)
Procedure, shortened: as §3

[10] = test system: chickweed; assay: Test Example 4: herbicidal effect by soil treatment (Table 19, symbol P); assay type: in vivo, common chickweed (Stellaria media)
Procedure, shortened: as §3

[11] = test system: southern crabgrass; assay: Test Example 5: herbicidal effect by foliage application, plastic box (Table 20, symbol F); assay type: in vivo, southern crabgrass (Digitaria ciliaris); conditions: foliage application; for F: southern crabgrass, herbicidal effect (criteria 0-5): AAH 320 g/ha, evaluated three weeks after application
Procedure, shortened: (§4)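 Sow seeds spot-wise in sterilized diluvial soil; cover with ~1.5 cm soil. Grow 14 days in greenhouse, 25° C. to 30° C. Spray foliage with emulsion diluted to predetermined amount. Rate effect after 3 weeks.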

[12] = test system: green foxtail; assay: Test Example 5: herbicidal effect by foliage application, plastic box (Table 20, symbol G); assay type: in vivo, green foxtail (Setaria viridis); conditions: foliage application; for G: green foxtail, herbicidal effect (criteria 0-5): AAH 320 g/ha, evaluated three weeks after application
Procedure, shortened: as §4

[13] = test system: wild oat; assay: Test Example 5: herbicidal effect by foliage application, plastic box (Table 20, symbol I); assay type: in vivo, wild oat (Avena fatua); conditions: foliage application; for I: wild oat, herbicidal effect (criteria 0-5): AAH 320 g/ha, evaluated three weeks after application
Procedure, shortened: as §4

[14] = test system: blackgrass; assay: Test Example 5: herbicidal effect by foliage application, plastic box (Table 20, symbol J); assay type: in vivo, blackgrass (Alopecurus myosuroides); conditions: foliage application; for J: blackgrass, herbicidal effect (criteria 0-5): AAH 320 g/ha, evaluated three weeks after application
Procedure, shortened: as §4

[15] = test system: Italian ryegrass; assay: Test Example 5: herbicidal effect by foliage application, plastic box (Table 20, symbol K); assay type: in vivo, Italian ryegrass (Lolium multiflorum); conditions: foliage application; for K: Italian ryegrass, herbicidal effect (criteria 0-5): AAH 320 g/ha, evaluated three weeks after application
Procedure, shortened: as §4

[16] = test system: velvetleaf; assay: Test Example 5: herbicidal effect by foliage application, plastic box (Table 20, symbol M); assay type: in vivo, velvetleaf (Abutilon theophrasti); conditions: foliage application; for M: velvetleaf, herbicidal effect (criteria 0-5): AAH 320 g/ha, evaluated three weeks after application
Procedure, shortened: as §4

[17] = test system: lambsquarters; assay: Test Example 5: herbicidal effect by foliage application, plastic box (Table 20, symbol O); assay type: in vivo, lambsquarters (Chenopodium album); conditions: foliage application; for O: lambsquarters, herbicidal effect (criteria 0-5): AAH 320 g/ha, evaluated three weeks after application
Procedure, shortened: as §4

[18] = amount of applied herbicide 320 g/ha
[19] = 320 g/ha, three weeks after application
[20] = 320 g/ha, 3 weeks after application

| SMILES | Herbicidal effect on A: late watergrass (grade 0-5) [1] | Herbicidal effect on B: Japanese bulrush (grade 0-5) [2] | Herbicidal effect on C: oval-leafed pondweed (grade 0-5) [3] | herbicidal effect on H (barnyard grass), rating 0-5 [4] | herbicidal effect on D (Chinese sprangletop), rating 0-5 [5] | herbicidal effect on E (rice flat sedge), rating 0-5 [6] | herbicidal effect on H: barnyard grass [4] | herbicidal effect on D: Chinese sprangletop [5] | herbicidal effect on E: rice flat sedge [6] | herbicidal effect on K: Italian ryegrass [7, 18] | herbicidal effect on L: windgrass [8, 18] | herbicidal effect on O: lambsquarters [9, 18] | herbicidal effect on P: chickweed [10, 18] | F: southern crabgrass, herbicidal effect (criteria 0-5) [11] | G: green foxtail, herbicidal effect (criteria 0-5) [12] | I: wild oat, herbicidal effect (criteria 0-5) [13] | J: blackgrass, herbicidal effect (criteria 0-5) [14] | K: Italian ryegrass, herbicidal effect (criteria 0-5) [15] | M: velvetleaf, herbicidal effect (criteria 0-5) [16] | O: lambsquarters, herbicidal effect (criteria 0-5) [17] | further results |
| --- | --- | --- | --- | --- | --- | --- | --- | --- | --- | --- | --- | --- | --- | --- | --- | --- | --- | --- | --- | --- | --- |
| Cc1nn(C)c(=O)c(-c2c(-c3ccc(C#N)cc3)sc3ccccc23)c1O [Compound No. 1-045, 5-hydroxy-2,6-dimethyl-4-(2-(4-cyanophenyl)benzo[b]thiophen-3-yl)pyridazin-3(2H)-one] | 1 (Herbicidal rate of 5% or more and less than 20%) | 4 (Herbicidal rate of 70% or more and less than 90%) | 4 (Herbicidal rate of 70% or more and less than 90%) | 5 (Herbicidal rate of 90% or more (almost completely withered)) | 4 (Herbicidal rate of 70% or more and less than 90%) | 5 (Herbicidal rate of 90% or more (almost completely withered)) |  |  |  |  |  |  |  |  |  |  |  |  |  |  | herbicidal effect rating, K: Italian ryegrass [7, 18]: 5 (Herbicidal rate of 90% or more (almost completely withered)); herbicidal effect rating, L: windgrass [8, 18]: 0 (Herbicidal rate of 5% or less (almost no effect)); herbicidal effect rating, O: lambsquarters [9, 18]: 5 (Herbicidal rate of 90% or more (almost completely withered)); herbicidal effect rating, P: chickweed [10, 18]: 4 (Herbicidal rate of 70% or more and less than 90%); herbicidal effect grade, F: southern crabgrass [11, 19]: 3 (Herbicidal rate of 40% or more and less than 70%); herbicidal effect grade, G: green foxtail [12, 19]: 3 (Herbicidal rate of 40% or more and less than 70%); herbicidal effect grade, I: wild oat [13, 19]: 3 (Herbicidal rate of 40% or more and less than 70%); herbicidal effect grade, J: blackgrass [14, 19]: 0 (Herbicidal rate of 5% or less (almost no effect)); herbicidal effect grade, K: Italian ryegrass [15, 19]: 5 (Herbicidal rate of 90% or more (almost completely withered)); herbicidal effect grade, M: velvetleaf [16, 19]: 5 (Herbicidal rate of 90% or more (almost completely withered)); herbicidal effect grade, O: lambsquarters [17, 19]: 5 (Herbicidal rate of 90% or more (almost completely withered)) |
| Cc1ccccc1C(=O)Oc1c(C)nn(C)c(=O)c1-c1c(-c2ccc(OC(F)F)cc2)sc2ccc(F)cc12 [2-285] | 5 (Herbicidal rate of 90% or more (almost completely withered)) | 3 (Herbicidal rate of 40% or more and less than 70%) | 0 (Herbicidal rate of 5% or less (almost no effect)) |  |  |  | 5 (Herbicidal rate of 90% or more (almost completely withered)) | 3 (Herbicidal rate of 40% or more and less than 70%) | 5 (Herbicidal rate of 90% or more (almost completely withered)) | 2 (Herbicidal rate of 20% or more and less than 40%) | 0 (Herbicidal rate of 5% or less (almost no effect)) | 0 (Herbicidal rate of 5% or less (almost no effect)) | 3 (Herbicidal rate of 40% or more and less than 70%) | 1 (Herbicidal rate of 5% or more and less than 20%) | 3 (Herbicidal rate of 40% or more and less than 70%) | 1 (Herbicidal rate of 5% or more and less than 20%) | 4 (Herbicidal rate of 70% or more and less than 90%) | 4 (Herbicidal rate of 70% or more and less than 90%) | 5 (Herbicidal rate of 90% or more (almost completely withered)) | 5 (Herbicidal rate of 90% or more (almost completely withered)) |  |
| CCCC(=O)Oc1c(C)nn(C)c(=O)c1-c1c(-c2ccc(OC(C)C)cc2)sc2ccc(F)cc12 [2-035] | 5 (Herbicidal rate of 90% or more (almost completely withered)) | 4 (Herbicidal rate of 70% or more and less than 90%) | 4 (Herbicidal rate of 70% or more and less than 90%) | 5 (Herbicidal rate of 90% or more (almost completely withered)) | 0 (Herbicidal rate of 5% or less (almost no effect)) | 5 (Herbicidal rate of 90% or more (almost completely withered)) |  |  |  |  |  |  |  |  |  |  |  |  |  |  | herbicidal effect rating, K: Italian ryegrass ([7]; 320 g/ha): 0 (Herbicidal rate of 5% or less (almost no effect)); herbicidal effect rating, L: windgrass ([8]; 320 g/ha): 0 (Herbicidal rate of 5% or less (almost no effect)); herbicidal effect rating, O: lambsquarters ([9]; 320 g/ha): 5 (Herbicidal rate of 90% or more (almost completely withered)); herbicidal effect rating, P: chickweed ([10]; 320 g/ha): 3 (Herbicidal rate of 40% or more and less than 70%); effect on southern crabgrass (F) [11, 20]: 2 (Herbicidal rate of 20% or more and less than 40%); effect on green foxtail (G) [12, 20]: 4 (Herbicidal rate of 70% or more and less than 90%); effect on wild oat (I) [13, 20]: 0 (Herbicidal rate of 5% or less (almost no effect)); effect on blackgrass (J) [14, 20]: 3 (Herbicidal rate of 40% or more and less than 70%); effect on Italian ryegrass (K) [15, 20]: 0 (Herbicidal rate of 5% or less (almost no effect)); effect on velvetleaf (M) [16, 20]: 5 (Herbicidal rate of 90% or more (almost completely withered)); effect on lambsquarters (O) [17, 20]: 3 (Herbicidal rate of 40% or more and less than 70%) |
| Cc1nn(C)c(=O)c(-c2c(-c3ccc(CSCC(F)(F)F)cc3)sc3ccc(F)cc23)c1O [2-331] | 3 (Herbicidal rate of 40% or more and less than 70%) | 3 (Herbicidal rate of 40% or more and less than 70%) | 0 (Herbicidal rate of 5% or less (almost no effect)) |  |  |  | 5 (Herbicidal rate of 90% or more (almost completely withered)) | 0 (Herbicidal rate of 5% or less (almost no effect)) | 4 (Herbicidal rate of 70% or more and less than 90%) | 5 (Herbicidal rate of 90% or more (almost completely withered)) | 0 (Herbicidal rate of 5% or less (almost no effect)) | 4 (Herbicidal rate of 70% or more and less than 90%) | 0 (Herbicidal rate of 5% or less (almost no effect)) | 5 (Herbicidal rate of 90% or more (almost completely withered)) | 5 (Herbicidal rate of 90% or more (almost completely withered)) | 3 (Herbicidal rate of 40% or more and less than 70%) | 4 (Herbicidal rate of 70% or more and less than 90%) | 4 (Herbicidal rate of 70% or more and less than 90%) | 5 (Herbicidal rate of 90% or more (almost completely withered)) | 5 (Herbicidal rate of 90% or more (almost completely withered)) |  |

Source: patent publication US20230085307A1, “PYRIDAZINONE COMPOUND AND HERBICIDE” (NISSAN CHEMICAL CORPORATION, priority 2019, published 2023)
